Key:
[1] = system: release of the leukotriene LTB4 from a neutrophil cell line (MPRO cell line); assay: LTB4-Cell Assay; type: cell-based; details: Mus musculus, 1 h, read-out: inhibition of LTB4 with an EC50
Excerpt: • This procedure was used for measuring the release of the leukotriene LTB4 from a neutrophil cell line using a competitive ELISA technique. Materials and Equipments Materials for Cell Preparation and Experiment • MPRO cell line (ATCC, Catalog # CRL-11422) • Calcium ionophore (A23187) (Sigma, Catalog # C7522) • Nordihydroguaiaretic acid (NDGA) (BioMol ,Catalog # EI101-0001) • Retinoic Acid (all-trans) (ATRA) (Sigma, Catalog # 95152) • Sterile, tissue-culture treated 96-well plates (Corning, Catalog # 3614) Materials for LTB4 ELISA • Precoated (Mouse Anti-Rabbit IgG) EIA 96 Well Strip Plates (Cayman, Catalog # 400004) • Leukotriene B4 AChE Tracer (Cayman Catalog # 420110) • Leukotriene B4 EIA Antiserum (Cayman Catalog # 420112) • Ellman's Reagent (Cayman Catalog # 400050) • EIA Buffer Concentrate (10×) (Cayman Catalog # 400060) • Wash Buffer Concentrate (400×) (Cayman Catalog # 400062) • Plastic plate covers (Cayman Catalog # 400012) Procedure
A mouse promyelocytic cell line (MPRO) was used in this assay. These cells are committed immature neutrophils that can be differentiated into mature neutrophils by treatment with 10 μM all-trans retinoic acid for 72 hours.
Following 72 hours of differentiation, cells were stimulated with 1 μM of a calcium ionophore (A23187) in the presence or absence of test compound or vehicle for 1 hour at 37° C. After this time, supernatant was removed from the cells and the LTB4 levels were determined following manufacturer's instructions, using a Leukotriene B4 EIA kit from Cayman (Cat # 5201 11). The negative controls were media samples from differentiated but un-stimulated cells. The compounds were screened at 5 concentrations in quadruplicate starting at 10 μM.

[2] = biological target: T1, human recombinant 5-Lipoxygenase (Homo sapiens, UniProt P09917); assay: 5-Lipoxygenase Enzyme Assay; type: biochemical; details: 70 μM arachidonic acid, 10 minute incubation at room temperature, FOX reagent, absorbance at 620 nm; read-out: inhibition of 5-Lipoxygenase with an IC50
T1 sequence (P09917 1-674): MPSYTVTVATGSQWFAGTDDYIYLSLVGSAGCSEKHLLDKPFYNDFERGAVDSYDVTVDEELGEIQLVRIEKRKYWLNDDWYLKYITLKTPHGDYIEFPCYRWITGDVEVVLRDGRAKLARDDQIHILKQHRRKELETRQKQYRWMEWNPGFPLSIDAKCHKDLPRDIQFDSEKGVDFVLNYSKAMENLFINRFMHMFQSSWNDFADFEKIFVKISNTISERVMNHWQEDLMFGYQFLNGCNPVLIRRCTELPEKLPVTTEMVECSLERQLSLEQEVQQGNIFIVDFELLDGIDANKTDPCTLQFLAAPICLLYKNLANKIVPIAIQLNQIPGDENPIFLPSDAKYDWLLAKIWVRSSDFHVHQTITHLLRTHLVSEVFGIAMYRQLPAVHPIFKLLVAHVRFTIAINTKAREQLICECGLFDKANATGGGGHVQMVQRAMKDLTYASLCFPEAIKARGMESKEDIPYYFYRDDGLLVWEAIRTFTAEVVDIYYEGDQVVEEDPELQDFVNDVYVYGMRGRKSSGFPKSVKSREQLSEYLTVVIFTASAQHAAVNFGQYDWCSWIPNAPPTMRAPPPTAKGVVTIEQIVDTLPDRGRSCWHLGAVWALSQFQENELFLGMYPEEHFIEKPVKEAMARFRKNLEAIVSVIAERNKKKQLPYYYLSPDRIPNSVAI
Excerpt: This procedure was used for measuring the enzymatic activity of human recombinant 5-Lipoxygenase using a colorimetric method based on the ferric oxidation of xylenol orange.
• 96 well flat bottom microfilter plates (VWR, Catalog # 62402-933 9295) • Lipoxygenase screening assay buffer (Cayman, Catalog # 760710) • Human recombinant 5-Lipoxygenase (Cayman, Catalog # 60402) • Arachidonic Acid (Sigma, Catalog # A3555) • Xylenol orange tetra sodium salt (Aldrich, Catalog # 227854) • Iron (II) sulfate heptahydrate (Sigma, Catalog # F7002) • Sulfuric acid (95-98%) [18 M] • Methanol Procedure
Human recombinant 5-Lipoxygenase (Cayman Cat # 60402) was used in this assay. The test compound and/or vehicle was added to 0.5 μL 5-Lipoxygenase in 50 mM Tris-HCl buffer, pH 7.4. The reaction was initiated by addition of 70 μM arachidonic acid in Tris-HCl buffer, pH 7.4, and terminated after a 10 minute incubation at room temperature by addition of FOX reagent (25 mM sulfuric acid, 100 μM xylenol orange, 100 μM iron (II) sulfate, methanol:water 9:1). The yellow color of acidified xylenol orange was converted to a blue color by the lipid hydroperoxide-mediated oxidation of Fe^2+ ions and the interaction of the resulting Fe^3+ ions with the dye. The complex was allowed to form during a 1 hour incubation at room temperature with shaking. Absorbance of the Fe^3+ complex was then measured at […] using a spectrophotometer.
Negative controls contained enzyme during the incubation step but substrate was not added until after the FOX reagent. Compounds were screened at 5 concentrations in triplicate starting at 10 μM

[3] = system: LTB4 production in human whole blood; assay: Inhibition of LTB4 Production in Blood; type: cell-based; details: 1 h, 20 μM A23187, 60 minutes at 37° C., LTB4 in plasma by ELISA, read-out: protection against LTB4 at an EC50
Experimental: • Human whole blood (Na citrate) (Stanford Blood Center) • A23187, (Sigma, Cat# C-7522) • Leukotriene B4 EIA reagents (Cayman Chemical, Cat # 520111) • BWA4C (Sigma, Cat # B7559) Procedure Preparation of A23187:
A23187 was prepared as a 10 mM stock solution in DMSO (aliquots can be stored at −20° C.). On the day of the assay the stock solution was diluted as follows: 70 μL 10 mM stock added to 1.6 mL plasma to give a working concentration of 0.42 mM.
From a 30 mM stock solution in DMSO, test articles were diluted to a working concentration of 600 μM in PBS (i.e. 10 μL stock solution+490 μL PBS). This is the highest concentration (gives a final testing concentration of 30 μM). From this 600 μM solution test articles were serially diluted 1:3 in PBS to give a dose-response curve. 10 μL of each concentration of test article was then added to 4 wells of a 96-well plate (i.e. testing in quadruplicate). A positive control compound, BWA4C was used in every assay.
Human whole blood was added to the plates containing compounds (190 μL per well) and mixed well. The blood was incubated with compound at 37° C. for 15 minutes. Following this incubation, 10 μL of 0.42 mM A23187 was added to each well except the negative control wells to give a final calcium ionophore concentration of 20 μM. The plates were then incubated at 37° C. for 60 minutes. After the incubation period, plates were centrifuged for 15 min at 2000 g at 4° C. in sealed microplate buckets. Plasma was then removed for quantitation of LTB4 levels by ELISA.
LTB4 levels in the plasma were determined using a commercially available ELISA kit from Cayman Chemicals. The ELISA was run according to the manufacturer's instructions. The LTB4 levels in the vehicle control sample were then compared to those in which the test article had been added. From this a percent inhibition of LTB4 production by each concentration of test article was calculated and the IC50 was determined.

| Compound | EC50 [1] | IC50 [2] | EC50 [3] |
| --- | --- | --- | --- |
| Cc1c(O)cc2c(c1C)N(CCCN1C(=O)c3ccccc3C1=O)CC1(CC1)C2 [2-(3-(6′-hydroxy-7′,8′-dimethyl-2′,4′-dihydro-1′H-spiro[cyclopropane-1,3′-quinoline]-1′-yl)propyl)isoindoline-1,3-dione] | < 5 µM | – | – |
| Cc1c(C)c2c(c(C)c1OCc1ccc3ccccc3n1)CCC1(CCC1)O2 [2-{[(5,7,8-trimethyl-3,4-dihydrospiro[chromene-2,1′-cyclobutan]-6-yl)oxy]methyl}quinoline] | < 5 µM | – | – |
| CONCC1=Cc2c(cc(C)c(OC(=O)C(C)(C)C)c2C)OC12CCC2 [3-[(methoxyamino)methyl]-5,7-dimethylspiro[chromene-2,1′-cyclobutan]-6-yl pivalate] | < 5 µM | – | – |
| CCONC1CC2(CCC2)Oc2cc(C)c(O)c(C)c21 (stereo not drawn) [4-(ethoxyamino)-5,7-dimethyl-3,4-dihydrospiro[chromene-2,1′-cyclobutan]-6-ol] | < 5 µM | < 0.3 µM | – |
| CCCCCCNC1c2c(C)c(O)c(C)c(C)c2OCC12CCC2 (stereo not drawn) [4-(hexylamino)-5,7,8-trimethylspiro[chroman-3,1′-cyclobutan]-6-ol] | < 5 µM | < 0.3 µM | – |
| CON(C)C1CC2(CCC2)Oc2c(C)c(C)c(O)c(C)c21 (stereo not drawn) [4-[methoxy(methyl)amino]-5,7,8-trimethyl-3,4-dihydrospiro[chromene-2,1′-cyclobutan]-6-ol] | < 5 µM | – | – |
| Cc1c(C)c2c(c(C)c1O)C(O)CC1(CCC1)O2 (stereo not drawn) [5,7,8-trimethyl-3,4-dihydrospiro[chromene-2,1′-cyclobutane]-4,6-diol] | < 5 µM | – | – |
| CCO/N=C1\CC2(CCC2)Oc2cc(CC)c(O)c(CC)c21 [5,7-diethyl-6-hydroxyspiro[chromene-2,1′-cyclobutan]-4(3H)-one O-ethyloxime] | < 5 µM | < 0.3 µM | – |
| Cc1cc(O)c(Cl)c2c1OC1(CCC1)CC2 [5-chloro-8-methyl-3,4-dihydrospiro[chromene-2,1′-cyclobutan]-6-ol] | < 5 µM | – | – |
| Cc1cc(O)c(C(C)C)c2c1OC1(CCC1)CC2 [5-isopropyl-8-methyl-3,4-dihydrospiro[chromene-2,1′-cyclobutan]-6-ol] | < 5 µM | – | – |
| Cc1c(C)c2c(c(C)c1O)C(C#N)=CC1(CCC1)O2 [6-hydroxy-5,7,8-trimethylspiro[chromene-2,1′-cyclobutane]-4-carbonitrile] | < 5 µM | – | – |
| Cc1c(OC(=O)CN(C)C)cc2c(c1C)OC1(CCC1)CC2 [7,8-dimethyl-3,4-dihydrospiro[chromene-2,1′-cyclobutan]-6-yl (dimethylamino)acetate] | < 5 µM | – | – |
| Cc1c(O)c(C(C)C)cc2c1C(O)CC1(CCC1)O2 (stereo not drawn) [7-isopropyl-5-methylspiro[chroman-2,1′-cyclobutane]-4,6-diol] | – | < 0.3 µM | < 10 µM |
| Cc1c(O)c(C(C)(C)C)cc2c1C(O)CC1(CCC1)O2 (stereo not drawn) [7-tert-butyl-5-methylspiro[chroman-2,1′-cyclobutane]-4,6-diol] | < 5 µM | – | – |
| Cc1c(O)c(C(C)C)c(CO)c2c1CCC1(CCC1)O2 [8-(hydroxymethyl)-7-isopropyl-5-methylspiro[chroman-2,1′-cyclobutan]-6-ol] | – | < 0.3 µM | < 10 µM |
| CCc1cc2c(c(CC)c1O)[C@H](O)CC1(CCC1)O2 [(R)-5,7-diethylspiro[chroman-2,1′-cyclobutane]-4,6-diol] | – | < 0.3 µM | < 10 µM |
| Cc1c(O)c(C(C)C)cc2c1[C@H](O)CC1(CCC1)O2 [(R)-7-isopropyl-5-methylspiro[chroman-2,1′-cyclobutane]-4,6-diol] | – | < 0.3 µM | < 10 µM |
| CCc1cc2c(c(CC)c1O)[C@@H](O)CC1(CCC1)O2 [(S)-5,7-diethylspiro[chroman-2,1′-cyclobutane]-4,6-diol] | – | < 0.3 µM | < 10 µM |
| Cc1c(O)c(C(C)C)cc2c1[C@@H](O)CC1(CCC1)O2 [(S)-7-isopropyl-5-methylspiro[chroman-2,1′-cyclobutane]-4,6-diol] | – | < 0.3 µM | < 10 µM |
| CCc1c(O)c(CC)c2c(c1CO)OC1(CCC1)CC2 [(Z)-5,7-diethyl-8-(hydroxymethyl)-3,4-dihydrospiro[chromene-2,1′-cyclobutan]-6-ol] | – | < 0.3 µM | < 10 µM |
| Cc1ccc(S(=O)(=O)NCCN2CC3(CCC3)Cc3cc(O)c(C)c(C)c32)cc1 [N-(2-(6′-hydroxy-7′,8′-dimethyl-2′,4′-dihydro-1′H-spiro[cyclobutane-1,3′-quinoline]-1′-yl)ethyl)-4-methylbenzenesulfonamide] | – | < 0.3 µM | < 10 µM |
| Cc1ccc(S(=O)(=O)NCCCN2CC3(CCC3)Cc3cc(O)c(C)c(C)c32)cc1 [N-(3-(6′-hydroxy-7′,8′-dimethyl-2′,4′-dihydro-1′H-spiro[cyclobutane-1,3′-quinoline]-1′-yl)propyl)-4-methylbenzenesulfonamide] | – | < 0.3 µM | < 10 µM |
| Cc1c(O)cc2c(c1C)N(CCCNC(=O)c1ccccc1)CC1(CCC1)C2 [N-(3-(6′-hydroxy-7′,8′-dimethyl-2′,4′-dihydro-1′H-spiro[cyclobutane-1,3′-quinoline]-1′-yl)propyl)benzamide] | – | < 0.3 µM | < 10 µM |

Reference: patent publication US7576094B2, “Spiro derivatives as lipoxygenase inhibitors” (Eli Lilly and Company, priority 2004, dated 2009)
